Here are results for two molecules from patent US11219656B2 (Industry-Academic Cooperation Foundation, Yonsei University, priority 2011, dated 2022).

Each structure is given as a SMILES string.

One series deals with calvaria. Description: Calvaria thickness measurement, gallocatechin and methyl vanillate treatment. It counts as cell-based. Conditions: calvaria of 4-day-old postnatal mice under differentiation, one week (FIG. 7). The protocol: While inducing the differentiation in the calvaria of 4-day-old postnatal mice supplied by Orient Bio. 2 nM of gallocatechin and 0.2 nM of methyl vanillate were treated for one week.

Series [1] concerns ALP (alkaline phosphatase). Description: ALP activity analysis. It counts as cell-based. Conditions: within the concentration gradient (FIG. 9 and FIG. 10).
The next series relates to SD-based rat. Conditions: single oral dose of 1 g/kg. The procedure:
6-week old specific pathogen-free (SPF) SD-based rat supplied from the DAEHAN Experiment Supply Center was used and the acute toxicity experiments were conducted as follows.
The animal mortality, clinical symptoms, and change in the body weight were observed and then hematologic testing and blood biochemical tests were conducted.

Series [2] deals with ALP (alkaline phosphatase) in primary osteoblast (POB) cells. The experiment in a line: ALP staining in differentiated primary osteoblast cells. It counts as cell-based. Conditions: 20 μM, differentiated and stained for 9 days (FIG. 8). The protocol:
In addition, in order to confirm the activity of ALP (alkaline phosphatase) showing the activation of bones, 20 μM of gallocatechin was treated with primary osteoblast (POB) cells, and allowed to differentiate and stain for 9 days.

As to `Oc1cc(O)c2c(c1)O[C@H](c1cc(O)c(O)c(O)c1)[C@@H](O)C2` [gallocatechin], the “thickness of the calvaria” value with calvaria (2 nM gallocatechin) is on record as “increased”. The “activity of ALP” value in series [1] is recorded as “increased”. Moreover, in the series on SD-based rat, the “specific clinical symptoms and died animals” value is listed as “not found”; the “toxic changes in body weight, blood tests, blood biochemical tests and autopsy findings” value is “not observed”. The “expression of ALP (staining)” value in series [2] is given as “increased”.
Consider `COC(=O)c1ccc(O)c(OC)c1` [methyl vanillate], for which the “thickness of the calvaria” value in the series with calvaria (0.2 nM methyl vanillate) is “increased”. For the same molecule, the “activity of ALP” value in series [1] is on record as “increased”.
